Measurements as given in patent EP1243271A1, “NASAL DROPS CONTAINING FUSED PYRIDAZINE DERIVATIVES” (Takeda Chemical Industries, Ltd., priority 1999, dated 2001).

What was measured:
[1] = tested on: guinea pig; assay: Effect on intranasal pressure and pituita (nasal) secretion after histamine aerosol, nasal administration; format: in vivo
Description: Animals were anesthetized with pentobarbital sodium (30 mg/kg, i.p.), and the compound of Reference Example B135 and solvent (0.1% sodium dihydrogenphosphate + 0.1% Tween 80) were administered into the both nasal cavities of guinea pig in 20 µL. The animals underwent the following test in about 0.5 hour.
The animals under anesthesia was held in the supine position. The neck was opened by median incision to expose the air tube. For maintenance of respiration, a polyethylene tube was inserted down into the air tube. Another polyethylene tube was inserted from the air tube incision into the rhinopharynx, and connected to a respirator via a silicon tube, through which the air was supplied into the nasal cavity at a volume of 4 mL/stroke and a frequency of 70 strokes/min. To prevent the air leak into the oral cavity, incisive canal was closed with Aron alfa A (trademark, Sankyo, Tokyo). The intranasal pressure was measured with a transducer connected to a side branch of the tube inserted into the nasal cavity. Histamine 1000 µg/mL solution was aerosolized using an ultrasonic nebulizer provided between the respirator and the tube in the nasal cavity, and the air was supplied into the nasal cavity for 3 minutes. After the histamine air supply, the intranasal pressure was depicted on an oscillograph for 15 minutes and the area under the curve was determined.
The pituita flowed out from the nasal cavity or pooled in the nasal cavity during the 15 minutes after histamine air supply was wiped with a cotton swab, which was weighed on an electronic weighing machine.
Where necessary, aerosolized physiological saline as a negative control was supplied into the nasal cavity, and the intranasal pressure and nasal secretion were measured.

[2] = molecular target: T1, histamine H1 receptor (Cavia porcellus, UniProt P31389); assay: Penetrability into the brain: ex vivo binding test with tritium-labeled pyrilamine in brain and lung membrane fractions; design: species or system guinea pigs
T1 construct: The cerebral cortex and lung tissues were removed and homogenized in phosphate buffer solution; from tissue; host or cells: cerebral cortex and lung crude membrane fractions of male Hartley guinea pigs
Description: The compound of Reference Example B135 was orally administered (10 or 100 mg/kg) to male Hartley guinea pigs and, one hour later, the guinea pigs were slaughtered by decapitation. The cerebral cortex and lung tissues were removed and homogenized in phosphate buffer solution, followed by centrifugation at 4°C and 1000×g for 10 minutes. The supernatant was further centrifuged at 5000×g for 10 minutes to give crude membrane fractions. The membrane fractions were suspended in a buffer and, after adjusting the protein concentration to 1.0 mg/mL, subjected to binding test with tritium-labeled pyrilamine (2 nM). The inhibitory action on ex vivo binding test measured specific binding of pyrilamine in the brain and lung membrane fractions was calculated and used as an index of selectivity to peripheral histamine H1 receptor in the body upon oral administration of the agent.

[3] = tested on: Male Hartley guinea pigs; assay: Effect on histamine-induced increases in microvascular permeability in skin in guinea pigs; format: in vivo; details: Cavia porcellus; 3 mg/kg oral administration 1 hour before histamine; guinea pig skin
Description: Male Hartley guinea pigs weighing about 500 g were used. After the dorsal hair was shaved under ether anesthesia, 1 ml of a 2.5% pontamine sky blue solution was injected intravenously, and then 0.1 ml of histamine at 3 µg/ml was injected intradermally into 2 sites (left and right) in the back. Thirty minutes after the injection of histamine, animals were fainted by knocking in the head, decapitated and killed by bleeding, after which the skin of the back was removed. The long and short diameters (mm) of each blue spot were measured and multiplied; the mean product was taken as the vascular permeability index. Test compounds were suspended in a 5% gum arabic solution and orally administered in a volume of 0.2 ml/100 g body weight at 1 hour before histamine administration. Animals in the control group received the same volume of a 5% gum arabic solution. Equation 1 Inhibition (%) of histamine-induced increases in microvascular permeability in skin = 100 × (1-vascular permeability index in the presence of drug/vascular permeability index in control group) [formula]

[4] = 0.1% solution, nasal, 20 µL, histamine 1000 µg/mL aerosol
[5] = 1.0% solution, nasal, 20 µL, histamine 1000 µg/mL aerosol

T1 sequence (P31389 whole entry): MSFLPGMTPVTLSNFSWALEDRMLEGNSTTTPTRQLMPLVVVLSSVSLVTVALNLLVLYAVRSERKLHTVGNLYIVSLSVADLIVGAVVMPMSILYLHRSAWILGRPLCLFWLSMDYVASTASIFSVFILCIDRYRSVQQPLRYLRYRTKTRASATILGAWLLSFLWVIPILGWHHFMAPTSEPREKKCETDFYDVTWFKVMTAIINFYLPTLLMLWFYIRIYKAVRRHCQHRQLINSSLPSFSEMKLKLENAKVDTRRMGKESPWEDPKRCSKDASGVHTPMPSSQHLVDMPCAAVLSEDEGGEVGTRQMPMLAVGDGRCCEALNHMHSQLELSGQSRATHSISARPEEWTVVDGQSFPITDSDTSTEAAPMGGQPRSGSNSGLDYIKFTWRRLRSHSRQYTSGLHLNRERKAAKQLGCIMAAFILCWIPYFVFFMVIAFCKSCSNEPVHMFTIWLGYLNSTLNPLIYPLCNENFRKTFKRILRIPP

**Q.** With `CC(C)(C(=O)O)c1cn2nc(NCCCN3CCC(OC(c4ccccc4)c4ccccc4)CC3)ccc2n1.O.O` [Reference Example B135, 2-[6-[3-[4-(diphenylmethoxy)piperidino]-propylamino]imidazo[1,2-b]pyridazin-2-yl]-2-methylpropionic acid dihydrate] as the compound, how does the “percent inhibition of increase in intranasal pressure by nasal administration of 0.1% solution” value [1, 4] read?
**A.** The value was 70%.

**Q.** And the “percent inhibition of nasal secretion by nasal administration of 0.1% solution” value [1, 4]?
**A.** The value was 72%.

**Q.** What about the “percent inhibition of increase in intranasal pressure by nasal administration of 1.0% solution” value [1, 5] of the same compound?
**A.** Its value is 62%.

**Q.** What about the “percent inhibition of nasal secretion by nasal administration of 1.0% solution” value [1, 5] of the same compound?
**A.** Its value is 78%.

**Q.** And the “increase in the intranasal pressure and nasal secretion” value ([1]; conclusion from Tables 3 and 4)?
**A.** The value was “reduced increase in the intranasal pressure and nasal secretion”.

**Q.** And the “penetrability into the brain” value ([2]; conclusion from Tables 5 and 6)?
**A.** The value was “poor penetrability into the brain”.

**Q.** What about the “percent inhibition of specific binding of membrane fraction pyrilamine in brain” value ([2]; oral administration of 10 mg/kg, one hour later, brain (cerebral cortex)) of the same compound?
**A.** The value was -2.9%.

**Q.** And the “percent inhibition of specific binding of pyrilamine in lung membrane fraction” value ([2]; oral administration of 10 mg/kg, one hour later)?
**A.** The value was 95%.

**Q.** And the “percent inhibition of specific binding of pyrilamine in brain membrane fraction” value ([2]; oral administration of 100 mg/kg, one hour later, brain (cerebral cortex))?
**A.** Its value is 44%.

**Q.** What about the “percent inhibition of specific binding of pyrilamine in lung membrane fraction” value ([2]; oral administration of 100 mg/kg, one hour later) of the same compound?
**A.** Its value is 95%.

**Q.** And the inhibition in vivo at 3 mg/kg [3]?
**A.** The inhibition in vivo at 3 mg/kg was 91%.
